≈ marks a conversion by molar mass, not a printed value. Read-outs that look alike come from different tables or passages of the source.
Experiments:
[1] = test system: K. pneumoniae clinical isolates; assay: Microdilution broth MIC, K. pneumoniae clinical isolates (Table 1); assay type: cell-based; settings: Klebsiella pneumoniae
Experimental: (§1) Microdilution Broth Minimum Inhibitory Concentrations (MICs)
(§2) MICs were performed in triplicate in cation adjusted Mueller-Hinton (MH) broth 30 according to CLSI guidelines. Firstly, overnight cultures of E. coli and K. pneumoniae clinical isolates were inoculated into 5 ml MH broth to OD600=0.1 and grown to OD600=0.224 (approximately 1-2×10^8 CFU/ml). These cultures were diluted (3 μl+4997 μl MH) and 100 μl inoculated into each well of a 96-well plate containing 100 μl of serial dilutions of compound 26 (YU253434), ampicillin, ceftazidime, or imipenem. The plates were placed in a 37° C. incubator for 18-20 hours and wells checked for growth.

[2] = test system: E. coli clinical isolates; assay: Microdilution broth MIC, E. coli clinical isolates (Table 1); assay type: cell-based; settings: Escherichia coli
Experimental: as §1, §2

[3] = K. pneumoniae KB390 Quale, TEM-30, TEM-1, KPC-2, SHV-12, read-out: MIC
[4] = K. pneumoniae LC56, CTX-M-1 grp(15), read-out: MIC
[5] = K. pneumoniae LC102, SHV-1 (WT + 238S), read-out: MIC
[6] = K. pneumoniae Rush23, CTX-M-9 group, read-out: MIC
[7] = K. pneumoniae VA-184, KPC-2, SHV-11, SHV-12, read-out: MIC
[8] = K. pneumoniae VA-267, KPC-3, TEM-1, SHV-11, SHV-12, read-out: MIC
[9] = K. pneumoniae VA-357, KPC-2, SHV-11, read-out: MIC
[10] = K. pneumoniae VA-368, KPC-2, TEM-1, SHV-5, SHV-68, read-out: MIC
[11] = K. pneumoniae VA-384, KPC-2, TEM-1, SHV-11, SHV-12, SHV-14, read-out: MIC
[12] = K. pneumoniae VA-391, KPC-3, TEM-1, SHV-11, SHV-12, SHV-77, read-out: MIC
[13] = K. pneumoniae VA-398, KPC-3, TEM-1, SHV-11, SHV-12, SHV-27, read-out: MIC
[14] = K. pneumoniae VA-400, KPC-2, TEM-1, SHV-11, SHV-12, read-out: MIC
[15] = K. pneumoniae VA-406, KPC-2, TEM-1, SHV-11, SHV-12, read-out: MIC
[16] = K. pneumoniae VA-410, KPC-3, TEM-1, SHV-11, read-out: MIC
[17] = E. coli 35218, TEM-1, read-out: MIC
[18] = E. coli LC12, CTX-M-1 grp(15), read-out: MIC
[19] = E. coli LC15, CTX-M-9 group, CTX-M-1 grp(15)
[20] = E. coli LC38, CTX-M-1 grp(15), PB AmpC (ACT/MIR)
[21] = E. coli LC41, TEM (238S), PB AmpC (ACT/MIR), CTX-M-1 grp(15)
[22] = E. coli LC77, TEM, KPC, read-out: MIC
[23] = E. coli LC81, SHV (238S + 240K), read-out: MIC
[24] = E. coli LC91, CTX-M-1 grp(15), CMY (group II), read-out: MIC
[25] = E. coli LC98, CMY (group II), read-out: MIC
[26] = E. coli LC109, CTX-M-9 group, CMY (group II)
[27] = E. coli LC111, TEM (164S), read-out: MIC
[28] = E. coli LC136, SHV (WT + 238S), read-out: MIC
[29] = K. pneumoniae 7000063, β-lactamase SHV-18, read-out: MIC
[30] = K. pneumoniae LC40, CTX-M-1 grp(15), TEM (164S), read-out: MIC
[31] = K. pneumoniae LC121, SHV-1 (WT + 238S + 240K), read-out: MIC
[32] = BAA202, E. coli BAA-202, SHV-1, read-out: MIC
[33] = E. coli Rush24, CMY (group II), read-out: MIC

## CC1(C)S[C@@H]2[C@H](NC(=O)[C@H](N)c3ccccc3)C(=O)N2[C@H]1C(=O)O [Ampicillin]
[1]; K. pneumoniae 7000063, β-lactamase SHV-18
  MIC: 1020 µg/mL (≈ 2930 µM)
[1]; [3]
  MIC: > 2050 µg/mL
[1]; K. pneumoniae LC40, CTX-M-1 grp(15), TEM (164S)
  MIC: 512 µg/mL (≈ 1470 µM)
[1]; [4]
  MIC: > 2050 µg/mL
[1]; [5]
  MIC: > 2050 µg/mL
[1]; K. pneumoniae LC121, SHV-1 (WT + 238S + 240K)
  MIC: 1020 µg/mL
[1]; [6]
  MIC: > 2050 µg/mL
[1]; [7]
  MIC: > 2050 µg/mL
[1]; [8]
  MIC: > 2050 µg/mL
[1]; [9]
  MIC: > 2050 µg/mL
[1]; [10]
  MIC: > 2050 µg/mL
[1]; [11]
  MIC: > 2050 µg/mL
[1]; [12]
  MIC: > 2050 µg/mL
[1]; [13]
  MIC: > 2050 µg/mL
[1]; [14]
  MIC: > 2050 µg/mL
[1]; [15]
  MIC: > 2050 µg/mL
[1]; [16]
  MIC: > 2050 µg/mL
[2]; BAA202, E. coli BAA-202, SHV-1
  MIC: > 2050 µg/mL
[2]; [17]
  MIC: 256 µg/mL (≈ 733 µM)
[2]; E. coli LC4, TEM, SHV-12
  MIC: > 2050 µg/mL
[2]; [18]
  MIC: 2050 µg/mL (≈ 5860 µM)
[2]; [19]
  MIC: 1020 µg/mL (≈ 2930 µM)
[2]; E. coli LC33, CTX-M-9 group
  MIC: 512 µg/mL (≈ 1470 µM)
[2]; [20]
  MIC: 512 µg/mL (≈ 1470 µM)
[2]; [21]
  MIC: 512 µg/mL (≈ 1470 µM)
[2]; [22]
  MIC: 2050 µg/mL (≈ 5860 µM)
[2]; [23]
  MIC: 2050 µg/mL
[2]; [24]
  MIC: 2050 µg/mL (≈ 5860 µM)
[2]; [25]
  MIC: 2050 µg/mL (≈ 5860 µM)
[2]; [26]
  MIC: 1020 µg/mL (≈ 2930 µM)
[2]; [27]
  MIC: 1020 µg/mL (≈ 2930 µM)
[2]; [28]
  MIC: 512 µg/mL
[2]; E. coli Rush24, CMY (group II)
  MIC: > 2050 µg/mL

## CC(C)(O/N=C(\C(=O)N[C@@H]1C(=O)N2C(C(=O)[O-])=C(C[n+]3ccccc3)CS[C@H]12)c1csc(N)n1)C(=O)O [Ceftazidime]
[1]; [29]
  MIC: 16 µg/mL (≈ 29.3 µM)
[1]; K. pneumoniae KB390 Quale, TEM-30, TEM-1, KPC-2, SHV-12
  MIC: 512 µg/mL (≈ 937 µM)
[1]; [30]
  MIC: < 1 µg/mL
[1]; [4]
  MIC: 16 µg/mL (≈ 29.3 µM)
[1]; [5]
  MIC: 4 µg/mL
[1]; [31]
  MIC: 16 µg/mL
[1]; [6]
  MIC: 2 µg/mL (≈ 3.66 µM)
[1]; K. pneumoniae VA-184, KPC-2, SHV-11, SHV-12
  MIC: 256 µg/mL (≈ 468 µM)
[1]; K. pneumoniae VA-267, KPC-3, TEM-1, SHV-11, SHV-12
  MIC: 512 µg/mL (≈ 937 µM)
[1]; K. pneumoniae VA-357, KPC-2, SHV-11
  MIC: 128 µg/mL (≈ 234 µM)
[1]; [10]
  MIC: 16 µg/mL (≈ 29.3 µM)
[1]; K. pneumoniae VA-384, KPC-2, TEM-1, SHV-11, SHV-12, SHV-14
  MIC: 256 µg/mL (≈ 468 µM)
[1]; K. pneumoniae VA-391, KPC-3, TEM-1, SHV-11, SHV-12, SHV-77
  MIC: 256 µg/mL (≈ 468 µM)
[1]; [13]
  MIC: 32 µg/mL (≈ 58.5 µM)
[1]; K. pneumoniae VA-400, KPC-2, TEM-1, SHV-11, SHV-12
  MIC: 256 µg/mL (≈ 468 µM)
[1]; K. pneumoniae VA-406, KPC-2, TEM-1, SHV-11, SHV-12
  MIC: 256 µg/mL (≈ 468 µM)
[1]; K. pneumoniae VA-410, KPC-3, TEM-1, SHV-11
  MIC: 128 µg/mL (≈ 234 µM)
[2]; [32]
  MIC: 16 µg/mL (≈ 29.3 µM)
[2]; [17]
  MIC: < 1 µg/mL
[2]; E. coli LC4, TEM, SHV-12
  MIC: 256 µg/mL (≈ 468 µM)
[2]; [18]
  MIC: > 1020 µg/mL
[2]; E. coli LC15, CTX-M-9 group, CTX-M-1 grp(15), read-out: MIC
  MIC: < 1 µg/mL
[2]; E. coli LC33, CTX-M-9 group, read-out: MIC
  MIC: 4 µg/mL (≈ 7.32 µM)
[2]; E. coli LC38, CTX-M-1 grp(15), PB AmpC (ACT/MIR), read-out: MIC
  MIC: < 1 µg/mL
[2]; E. coli LC41, TEM (238S), PB AmpC (ACT/MIR), CTX-M-1 grp(15), read-out: MIC
  MIC: < 1 µg/mL
[2]; [22]
  MIC: 16 µg/mL (≈ 29.3 µM)
[2]; [23]
  MIC: 128 µg/mL
[2]; [24]
  MIC: 16 µg/mL (≈ 29.3 µM)
[2]; [25]
  MIC: 256 µg/mL (≈ 468 µM)
[2]; E. coli LC109, CTX-M-9 group, CMY (group II), read-out: MIC
  MIC: 32 µg/mL (≈ 58.5 µM)
[2]; [27]
  MIC: 2 µg/mL (≈ 3.66 µM)
[2]; [28]
  MIC: < 1 µg/mL
[2]; [33]
  MIC: 256 µg/mL (≈ 468 µM)

## C[C@@H](O)[C@H]1C(=O)N2C(C(=O)O)=C(SCCN=CN)C[C@H]12 [Imipenem]
[1]; [29]
  MIC: < 0.125 µg/mL
[1]; [3]
  MIC: 4 µg/mL (≈ 13.4 µM)
[1]; [30]
  MIC: 0.25 µg/mL (≈ 0.835 µM)
[1]; [4]
  MIC: 0.5 µg/mL (≈ 1.67 µM)
[1]; [5]
  MIC: < 0.125 µg/mL
[1]; [31]
  MIC: < 0.125 µg/mL
[1]; [6]
  MIC: < 0.125 µg/mL
[1]; [7]
  MIC: 8 µg/mL (≈ 26.7 µM)
[1]; [8]
  MIC: 4 µg/mL (≈ 13.4 µM)
[1]; [9]
  MIC: 8 µg/mL (≈ 26.7 µM)
[1]; [10]
  MIC: 1 µg/mL (≈ 3.34 µM)
[1]; [11]
  MIC: 32 µg/mL (≈ 107 µM)
[1]; [12]
  MIC: 4 µg/mL (≈ 13.4 µM)
[1]; [13]
  MIC: 1 µg/mL (≈ 3.34 µM)
[1]; [14]
  MIC: 4 µg/mL (≈ 13.4 µM)
[1]; [15]
  MIC: > 128 µg/mL
[1]; [16]
  MIC: 2 µg/mL (≈ 6.68 µM)
[2]; [32]
  MIC: 0.25 µg/mL (≈ 0.835 µM)
[2]; E. coli 35218, TEM-1
  MIC: < 0.125 µg/mL
[2]; E. coli LC4, TEM, SHV-12
  MIC: < 0.125 µg/mL
[2]; E. coli LC12, CTX-M-1 grp(15)
  MIC: 128 µg/mL (≈ 428 µM)
[2]; [19]
  MIC: < 0.125 µg/mL
[2]; E. coli LC33, CTX-M-9 group
  MIC: < 0.125 µg/mL
[2]; [20]
  MIC: < 0.125 µg/mL
[2]; [21]
  MIC: < 0.125 µg/mL
[2]; [22]
  MIC: 2 µg/mL (≈ 6.68 µM)
[2]; [23]
  MIC: < 0.125 µg/mL
[2]; E. coli LC91, CTX-M-1 grp(15), CMY (group II)
  MIC: < 0.125 µg/mL
[2]; [25]
  MIC: < 0.125 µg/mL
[2]; [26]
  MIC: < 0.125 µg/mL
[2]; [27]
  MIC: < 0.125 µg/mL
[2]; [28]
  MIC: < 0.125 µg/mL
[2]; [33]
  MIC: 0.25 µg/mL (≈ 0.835 µM)

From patent US11746111B2, “Siderophore conjugated pyrazolidinones, and analogues thereof” (YALE UNIVERSITY, priority 2018, dated 2023)
